According to patent publication US11162117B2, “Whole-cell catalytic system and applications thereof” (National Taiwan University, priority 2018, dated 2021):

What was measured:
Format in all cases: cell-based, Marinobacter aquaeoli VT8
AlkR protein [1] = test: Alkane induction assay: mRFP reporter in E. coli JM109 carrying psb4K5-alkR-mRFP plasmid (flow cytometry)
Description: (§1) E. coli JM109 carrying the psb4K5-alkR-mRFP plasmid was cultured overnight at 37° C. and 125-150 rpm in 3 mL of LB medium containing 50 μg/mL kanamycin. The overnight culture was diluted 1000-fold in LB medium in a 100 mL Hinton's flask and cultured at 37° C. To induce the expression of red fluorescent protein, 1% (v/v) of the various indicated hydrocarbons was added to the culture when the absorbance at 600 nm (O.D.600) reached about 0.6. At 0, 3, 6, 9, and 12 hours after the induction, 500 μL of the abovementioned bacterial culture was collected and centrifuged to obtain a cell pellet, which was washed twice and resuspended with phosphate buffer saline (PBS). Flow cytometry (BD FACSCanto II) was used to measure the mean fluorescence intensity of the cells and the distribution of cells with different fluorescence intensities (an excitation wavelength at 532 nm and an emission wavelength at 588 nm). For the E. coli JM109 that additionally carrying an expression vector of an alkane transporter, rhamnose was first added to the bacterial culture at an O.D.600 of about 0.6, and 1% (v/v) of the various indicated hydrocarbons was added three hours thereafter.
First, E. coli JM109 was transformed with the psb4K5-alkR-mRFP plasmid shown in FIG. 1, which was a reporter plasmid including the alkR gene, the gene encoding the red fluorescent protein, and the promoter thereof. […] At 0, 3, 6, 9, and 12 hours after the induction, the mean fluorescence intensity and fluorescence distribution of E. coli cells were measured by flow cytometry. […]
It was also studied whether the medium-chain or long-chain alkane terminal oxidation products would inhibit the activating effect of the AlkR protein on gene expression. In the alkane induction assay using n-dodecane as the inducer, 0.1% (v/v) or 1% (v/v) 1-dodecanol was additionally added to the E. coli culture, and the mean fluorescence intensity of the E. coli cells was measured at 6 and 12 hours after the induction, with the results shown in FIG. 10.

CYP153A operon [2] = test: CYP153A expression in recombinant E. coli carrying pBBR1-CYPLR plasmid (SDS-PAGE, CO difference spectroscopy); conditions: 1% (v/v) methyl laurate, pBBR1-CYPLR vs pBBR1-alkR plasmid
Description: E. coli JM109 carrying the pBBR1-CYPLR plasmid or the pBBR1-alkR plasmid was overnight cultured at 37° C. and 125-150 rpm in 3 mL of LB medium containing 50 μg/mL kanamycin. The overnight culture was diluted 1000-fold in 3 mL of LB medium containing 50 μg/mL kanamycin and cultured at 37° C. 1% (v/v) methyl laurate was added to the culture at an O.D.600 of about 0.6 and a further incubation at 30° C. was carried out for 12 hours. The cell pellet obtained by centrifuging the abovementioned bacterial culture was washed and resuspended with PBS, and then subjected to protein expression analysis by sodium dodecyl sulfate polyacrylamide gel electrophoresis (SDS-PAGE) or carbon monoxide (CO) difference spectroscopy.
Samples of bacterial cells were mixed with sample buffer (50 mM Tris-HCl, pH 6.8, 100 mM dithiothreitol (DTT), 2% SDS, 0.1% bromophenol blue, 10% glycerol) and boiled for 10 minutes. […]
It was studied whether CYP153A expression in the recombinant E. coli carrying the reconstructed CYP153A operon from M. aquaeoli VT8 would be induced by medium-chain or long-chain fatty acid methyl esters. […] At 12 hours after the induction, the expression of CYP153A was analyzed by SDS-PAGE, and the protein molecular size and activity of the cytochrome P450 consisting of CYP153A, ferredoxin, and ferredoxin reductase were verified by carbon monoxide difference spectroscopy.

AlkR protein [3] = test: Alkane induction assay in E. coli JM109 carrying psb4K5-alkR-mRFP and rhamnose-inducible psb3C5-rha-weak alkL (or mock psb3C5-rha) plasmid; conditions: for expression of red fluorescent protein (mean fluorescence intensity) compared to no rhamnose addition: AlkL plasmid, 0.01% (w/v) rhamnose then 1% (v/v) n-tetradecane, 6 h after induction, FIG. 14
Description: as §1
This characteristic might prevent the recombinant microorganism including the CYP153A operon from being induced by the medium-chain or long-chain alkanes or medium-chain or long-chain fatty acid methyl esters and producing the medium-chain or long-chain alkane terminal oxidation products. In order to promote the entry of medium-chain or long-chain alkanes into cells, the recombinant microorganism of the present invention may further express an alkane transporter. The AlkL protein of P. putida GPol is an exemplary alkane transporter used in this example to investigate the effects of alkane transporter expression on the uptake of medium-chain or long-chain alkanes or medium-chain or long-chain fatty acid methyl esters by the recombinant microorganisms. The AlkL protein is cytotoxic and its expression should be tightly regulated. […] At 6 hours after the induction, the mean fluorescence intensity of E. coli cells was measured by flow cytometry.
The AlkL protein was also tested for the ability to promote the uptake of various medium-chain or long-chain alkanes and methyl laurate by microbial cells. […] After 3 hours of incubation, 1% (v/v) n-octane, n-decane, n-dodecane, n-tetradecane, n-hexadecane, n-octadecane, or methyl laurate was added to induce the expression of red fluorescent protein, and the mean fluorescence intensity and fluorescence distribution of E. coli cells were measured by flow cytometry 6 hours after the induction. […]

CYP153A operon [4] = test: n-Octane-induced 1-octanol production by recombinant E. coli carrying pBBR1-CYPLR plasmid (gas chromatography); conditions: 1% (v/v) n-octane; 12 h after induction; pBBR1-CYPLR vs pBBR1-alkR plasmid; FIG. 13
Description: The medium-chain or long-chain alkane terminal oxidation product in the sample was analyzed qualitatively and quantitatively by gas chromatography. The analysis of alkanols and alkanediols was described as follows, with 1-octanol taken as example. 10 mg of 1,8-octanediol was added as an internal standard to 10 mL of the collected bacterial culture, and the mixture was extracted twice with double volumes of ethyl acetate. […] The obtained product was analyzed for composition by Varian CP-3800 gas chromatograph equipped with a DB-5 column and a flame ionization detector (FID). […] Alkanoic acids, alkanedioic acids, or alcohol acids were analyzed similarly as described above. In one embodiment of the present invention, 12-hydroxydodecanoic acid was analyzed using dodecanol as the internal standard.
It was studied whether the recombinant E. coli carrying the reconstructed CYP153A operon from M. aquaeoli VT8 would be induced to express the cytochrome P450 with oxidative activity and produce medium-chain or long-chain alkane terminal oxidation products in response to medium-chain or long-chain alkanes. […] At 12 hours after the induction, the production of 1-octanol in the bacterial culture was analyzed by gas chromatography.

## CCCCCCCCCCCC(=O)OC [methyl laurate]
AlkR protein [1]; 1% (v/v) inducer, 0-12 h, recombinant E. coli JM109, vs untreated control, FIG. 8
  expression of red fluorescent protein (mean fluorescence intensity) relative to control group: induced the expression of red fluorescent protein
CYP153A operon [2]; 12 h, FIGS. 12A-12B
  whole-cell carbon monoxide difference spectrum (400-500 nm): absorption peak at about 450 nm
CYP153A operon [2]; 12 h after induction, FIG. 11
  CYP153A expression by SDS-PAGE: expressed the CYP153A
AlkR protein [3]; psb3C5-rha mock vector, 0.01% rhamnose 3 h then 1% (v/v) inducer 6 h, FIG. 15
  expression of red fluorescent protein in control groups (mock vector) vs non-induced groups: induce significantly more expression of the red fluorescent protein

## CCCCCCCCCCCCO [1-dodecanol]
AlkR protein [1]; 0.1% or 1% (v/v) 1-dodecanol added with 1% n-dodecane inducer, 6 and 12 h, FIG. 10
  inhibition of n-dodecane-induced red fluorescent protein expression: did not inhibit the expression of red fluorescent protein

## CCCCCCCC [n-octane]
AlkR protein [1]; 1% (v/v) alkane, 0 vs 6 h after induction, FIGS. 9A-9F
  number of E. coli cells induced to express red fluorescent protein (fluorescence distribution histograms): more E. coli cells were induced to express the red fluorescent protein
CYP153A operon [4]
  induction of cytochrome P450 with oxidative activity (1-octanol production, gas chromatogram): additional peak at the retention time of 1-octanol

## C[C@H](O)[C@H](O)[C@@H](O)[C@@H](O)C=O [rhamnose, reference compound]
AlkR protein [3]
  expression of red fluorescent protein (mean fluorescence intensity) compared to no rhamnose addition: induced significantly more expression of the red fluorescent protein

## CCCCCCCCCCCCCC [n-tetradecane]
AlkR protein [3]
  expression of red fluorescent protein (mean fluorescence intensity) compared to no rhamnose addition: induced significantly more expression of the red fluorescent protein
AlkR protein [3]; psb3C5-rha-weak alkL plasmid, 0.01% rhamnose 3 h then 1% (v/v) alkane 6 h, FIG. 15
  expression of red fluorescent protein in E. coli cells expressing both AlkL and AlkR proteins vs control groups: more effective in inducing the expression of red fluorescent protein
